Reference: patent US12319679B2, “Morpholinyl, piperazinyl, oxazepanyl and diazepanyl O-glycoprotein-2-acetamido-2-deoxy-3-d-glucopyranosidase inhibitors” (BIOGEN MA INC., priority 2018, dated 2025)
Counter-ions that a name gives are not always drawn.

Each compound was assayed against T1, Recombinant full length human OGA enzyme (Homo sapiens, UniProt O60502) (assay: OGA Enzyme Inhibition Biochemical Assay). Settings: 1 nM OGA, 100 μM 4-MUGlcNAc (Km), pH 6.4, 90 minutes at room temperature; 10-point dose-response starting from 20 μM.
T1 construct: Recombinant full length human OGA enzyme was purchased from Origene; purchased Origene
T1 sequence (O60502 1-916): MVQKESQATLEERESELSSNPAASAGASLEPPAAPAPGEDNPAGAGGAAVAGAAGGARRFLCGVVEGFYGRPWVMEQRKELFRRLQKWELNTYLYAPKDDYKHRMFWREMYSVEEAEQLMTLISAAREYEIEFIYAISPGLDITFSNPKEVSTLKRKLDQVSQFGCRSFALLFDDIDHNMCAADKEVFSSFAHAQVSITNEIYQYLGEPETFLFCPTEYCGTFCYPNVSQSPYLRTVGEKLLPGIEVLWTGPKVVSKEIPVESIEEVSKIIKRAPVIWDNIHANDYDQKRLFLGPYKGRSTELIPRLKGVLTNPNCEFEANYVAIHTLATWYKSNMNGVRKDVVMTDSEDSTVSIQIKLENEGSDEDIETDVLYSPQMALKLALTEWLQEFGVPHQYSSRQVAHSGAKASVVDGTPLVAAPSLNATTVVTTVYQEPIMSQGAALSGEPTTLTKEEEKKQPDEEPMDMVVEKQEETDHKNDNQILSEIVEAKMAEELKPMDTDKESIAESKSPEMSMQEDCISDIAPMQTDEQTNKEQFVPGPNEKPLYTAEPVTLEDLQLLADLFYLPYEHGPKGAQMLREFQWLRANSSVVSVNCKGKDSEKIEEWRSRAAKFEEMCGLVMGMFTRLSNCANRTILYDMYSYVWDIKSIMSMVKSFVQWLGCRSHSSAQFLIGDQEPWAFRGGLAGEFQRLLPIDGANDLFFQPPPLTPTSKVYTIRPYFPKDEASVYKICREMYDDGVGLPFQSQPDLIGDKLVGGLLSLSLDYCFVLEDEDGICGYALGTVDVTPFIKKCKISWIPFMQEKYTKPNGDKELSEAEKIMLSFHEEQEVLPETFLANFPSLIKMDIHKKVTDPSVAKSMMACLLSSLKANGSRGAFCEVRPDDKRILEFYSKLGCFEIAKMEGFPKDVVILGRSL
Description: OGA Enzyme Inhibition Biochemical Assay
Recombinant full length human OGA enzyme was purchased from Origene. 4-MUGlCNAc substrate was purchased from Sigma. All other reagents were purchased from Sigma or Fisher. Assay buffer consists of the McIlvaine buffer system, pH 6.4 (0.2M Na2HPO4 mixed with 0.1M citric acid) and 0.01% BSA. Reactions consist of 1 nM OGA, 100 μM 4-MUGlcNAc (Km), and compound in a final volume of 10 μl. Reactions were incubated for 90 minutes at room temperature and quenched with 40 μl of 3M glycine, pH 10 and read on a Perkin Elmer Envision plate reader (Ex: 355 nm/Em: 460 nm). Compounds were tested with a 10-point dose-response starting from 20 μM with a 4-fold dilution. Data was fit using GraphPad Prism using a 4-paramter fit with variable slope.

SMILES	IC50
CC(=O)Nc1ncc(CN2CCCOC(Cc3ncc(F)cn3)C2)s1 (single isomer, unassigned) [Example 1-39 Peak 1]	20 nM
CC(=O)Nc1ncc(CN2CCCN(C)C(Cc3ncc(F)cn3)C2)s1 (centres unmarked) [Example 2-24, N-(5-((3-((5-fluoropyrimidin-2-yl)methyl)-4-methyl-1,4-diazepan-1-yl)methyl)thiazol-2-yl)acetamide]	12000 nM
COc1nccc(C[C@@H]2CN(Cc3cnc(NC(C)=O)s3)CCO2)c1F [Example 1-15, (R)—N-(5-((2-((3-fluoro-2-methoxypyridin-4-yl)methyl)morpholino)methyl)thiazol-2-yl)acetamide]	56 nM
COc1cc(CC2COCCN(Cc3cnc(NC(C)=O)s3)C2)ccn1 (single isomer, unassigned) [Example 1-47 Peak 2]	17 nM
CC(=O)Nc1ncc(CN2CCO[C@@H](Cc3ncc(F)cn3)C2)s1 [Example 1-2, (S)—N-(5-((2-((5-fluoropyrimidin-2-yl)methyl)morpholino)methyl)thiazol-2-yl)acetamide]	4400 nM
CC(=O)Nc1ncc(CN2CCN(C)[C@@H](Cc3cc(C)nc(C)c3)C2)s1 [Example 4-4, (S)—N-(5-((3-((2,6-dimethylpyridin-4-yl)methyl)-4-methylpiperazin-1-yl)methyl)thiazol-2-yl)acetamide]	200 nM
CC(=O)Nc1ncc(CN2CCNC(Cc3ccc(C)nc3)C2)s1 (single isomer, unassigned) [Example 4-14 Peak 1]	> 20000 nM
CC(=O)Nc1ncc(CN2CCOC(C(C)c3ncc(F)cn3)C2)s1 (single isomer, unassigned) [Example 1-25 Peak 4]	1300 nM
COc1cc(C[C@@H]2CN(Cc3cnc(NC(C)=O)s3)[C@@H](C)CN2C)ccn1 [Example 2-18]	4.9 nM
CC(=O)Nc1ncc(CN2CCCNC(Cc3ncc(F)cn3)C2)s1 (centres unmarked) [Example 2-23, N-(5-((3-((5-fluoropyrimidin-2-yl)methyl)-1,4-diazepan-1-yl)methyl)thiazol-2-yl)acetamide]	5600 nM
COc1cc(C[C@@H]2CN(Cc3cnc(NC(C)=O)s3)[C@@H](C)CO2)ccn1 [Example 1-30, N-(5-(((2R,5S)-2-((2-methoxypyridin-4-yl)methyl)-5-methylmorpholino)methyl)thiazol-2-yl)acetamide]	17000 nM
COc1cc(CC2CN(Cc3cnc(NC(C)=O)s3)CCN2)ccc1F (single isomer, unassigned) [Example 4-6 Peak 1]	11000 nM
COc1nccc(C[C@@H]2CN(Cc3cnc(NC(C)=O)s3)CCO2)n1 [Example 1-7, (R)—N-(5-((2-((2-methoxypyrimidin-4-yl)methyl)morpholino)methyl)thiazol-2-yl)acetamide]	110 nM
CC(=O)Nc1ncc(CN2C[C@@H](Cc3cc(C)nc(C)n3)N(C)C[C@@H]2C)s1 [Example 2-17]	41 nM
CC(=O)Nc1ncc(CN2C[C@@H](COc3cc(C)nc(C)c3)N(C)C[C@@H]2C)s1 [Example 3-2, N-(5-(((2S,5S)-5-(((2,6-dimethylpyridin-4-yl)oxy)methyl)-2,4-dimethylpiperazin-1-yl)methyl)thiazol-2-yl)acetamide]	38 nM
CCOc1cc(C[C@@H]2CN(Cc3cnc(NC(C)=O)s3)CCO2)ccn1 [Example 1-11, (R)—N-(5-((2-((2-ethoxypyridin-4-yl)methyl)morpholino)methyl)thiazol-2-yl)acetamide]	130 nM
CC(=O)Nc1ncc(CN2CCCOC(Cc3cc(C)nc(C)c3)C2)s1 (single isomer, unassigned) [Example 1-37 Peak 1]	31 nM
COc1cc(CC2CN(Cc3cnc(NC(C)=O)s3)CCCN2C(C)=O)ccn1 (centres unmarked) [Example 2-26, N-(5-((4-acetyl-3-((2-methoxypyridin-4-yl)methyl)-1,4-diazepan-1-yl)methyl)thiazol-2-yl)acetamide]	> 20000 nM
CC(=O)Nc1ncc(CN2CCNC(Cc3ncc(F)cn3)C2)s1 (single isomer, unassigned) [Example 2-20 Peak 1]	560 nM

SMILES	IC50
CC(=O)Nc1ncc(CN2CCNC(Cc3ccc(C)nc3)C2)s1 (single isomer, unassigned) [Example 4-14 Peak 2]	4400 nM
CC(=O)Nc1ncc(CN2CCO[C@H](Cc3ncc(F)cn3)C2)s1 [Example 1-1, (R)—N-(5-((2-((5-fluoropyrimidin-2-yl)methyl)morpholino)methyl)thiazol-2-yl)acetamide]	16 nM
CC(=O)Nc1ncc(CN2C[C@@H](Cc3ccnc(C)c3)N(C)C[C@@H]2C)s1 [Example 2-2, N-(5-(((2S,5R)-2,4-dimethyl-5-((2-methylpyridin-4-yl)methyl)piperazin-1-yl)methyl)thiazol-2-yl)acetamide]	9.8 nM
CC(=O)Nc1ncc(CN2CCO[C@H](Cc3ccnc(OCC(F)(F)F)c3)C2)s1 [Example 1-10]	160 nM
CC(=O)Nc1ncc(CN2CCOC(C(C)c3ncc(F)cn3)C2)s1 (single isomer, unassigned) [Example 1-25 Peak 3]	160 nM
CC(=O)Nc1ncc(CN2C[C@@H](Cc3ncc(F)cn3)OC[C@H]2C)s1 [Example 1-27]	6600 nM
CC(=O)Nc1ncc(CN2CCCN(C(C)=O)C(Cc3cc(C)nc(C)c3)C2)s1 (centres unmarked) [Example 2-29, N-(5-((4-acetyl-3-((2,6-dimethylpyridin-4-yl)methyl)-1,4-diazepan-1-yl)methyl)thiazol-2-yl)acetamide]	> 20000 nM
CC(=O)Nc1ncc(CN2CCCNC(Cc3ccnc(C)c3)C2)s1 (centres unmarked) [Example 2-27, N-(5-((3-((2-methylpyridin-4-yl)methyl)-1,4-diazepan-1-yl)methyl)thiazol-2-yl)acetamide]	9900 nM
CC(=O)Nc1ncc(CN2CCO[C@H](Cc3ccc(C)cn3)C2)s1 [Example 1-16, (R)—N-(5-((2-((5-methylpyridin-2-yl)methyl)morpholino)methyl)thiazol-2-yl)acetamide]	160 nM
CC(=O)Nc1ncc(CN2C[C@@H](Cc3ncc(F)cn3)OC[C@@H]2C)s1 [Example 1-26]	5.1 nM
CC(=O)Nc1ncc(CN2C[C@@H](Cc3ncc(F)cn3)O[C@@H](C)C2)s1 (racemic) [Example 1-34, N-(5-(((cis)-2-((5-fluoropyrimidin-2-yl)methyl)-6-methylmorpholino)methyl)thiazol-2-yl)acetamide]	680 nM
CC(=O)Nc1ncc(CN2C[C@@H](Cc3ccnc(C)c3)NC[C@@H]2C)s1 [Example 2-1, N-(5-(((2S,5R)-2-methyl-5-((2-methylpyridin-4-yl)methyl)piperazin-1-yl)methyl)thiazol-2-yl)acetamide]	7.4 nM
CC(=O)Nc1ncc(CN2CCCOC(Cc3ncc(F)cn3)C2)s1 (single isomer, unassigned) [Example 1-39 Peak 2]	760 nM
COc1cc(CC2CN(Cc3cnc(NC(C)=O)s3)CCCO2)ccn1 (racemic) [Example 1-40, N-(5-((2-((2-methoxypyridin-4-yl)methyl)-1,4-oxazepan-4-yl)methyl)thiazol-2-yl)acetamide]	99 nM
CC(=O)Nc1ncc(CN2CCN[C@@H](Cc3cc(C)nc(C)c3)C2)s1 [Example 4-2, (S)—N-(5-((3-((2,6-dimethylpyridin-4-yl)methyl)piperazin-1-yl)methyl)thiazol-2-yl)acetamide hydrochloride]	350 nM
CC(=O)Nc1ncc(CN2CCCNC(Cc3cc(C)nc(C)c3)C2)s1 (centres unmarked) [Example 2-28, N-(5-((3-((2,6-dimethylpyridin-4-yl)methyl)-1,4-diazepan-1-yl)methyl)thiazol-2-yl)acetamide]	12000 nM
COc1nccc(CC2CN(Cc3cnc(NC(C)=O)s3)CCN2)c1F (single isomer, unassigned) [Example 4-18 Peak 2]	1500 nM
COc1cc(CC2CN(Cc3cnc(NC(C)=O)s3)CCCN2)ccn1 (centres unmarked) [Example 2-25, N-(5-((3-((2-methoxypyridin-4-yl)methyl)-1,4-diazepan-1-yl)methyl)thiazol-2-yl)acetamide]	> 20000 nM
CCN1C[C@H](C)N(Cc2cnc(NC(C)=O)s2)C[C@H]1Cc1ccc(C)nc1 [Example 2-12, N-(5-(((2S,5R)-4-ethyl-2-methyl-5-((6-methylpyridin-3-yl)methyl)piperazin-1-yl)methyl)thiazol-2-yl)acetamide]	180 nM
